Several values for one entry are separate records, joined by “and”; a condition that tells them apart may be missing. Identical values can stand only once. Marks after values point to notes of the source that are not given here.
Assays:
[1] = cited from earlier work
[2] = system: rats with adjuvant polyarthritis; details: Demerson et al. 1983; cited from earlier work
prostaglandin synthetase = details: Demerson et al. 1983; cited from earlier work
[3] = system: transgenic adenocarcinoma mouse prostate (TRAMP) mouse; experiment: TRAMP animal model: average weight of dissected prostate lobes; type: in vivo
Protocol: (§1) The transgenic adenocarcinoma mouse prostate (TRAMP) mouse, was used to evaluate the effect of R-etodolac on prostate cancer progression. The etodolac was compounded into the diet at 312 ppm (low dose) and 1250 ppm (high dose) and the animals were treated for 18 weeks. At necoscopy, the urogenital system was removed and weighed. The prostate lobes, seminal vesicles, lungs, liver, and periaortic lymph nodes were preserved and sectioned for histological evaluation and graded on a 1-6 scale for degree of hyperplasia/neoplasia/carcinoma.

[4] = system: transgenic adenocarcinoma mouse prostate (TRAMP) mouse; experiment: TRAMP animal model: histopathological evaluation of the prostate (grade 1-6); type: in vivo; set-up: key to Average mouse Staging / Overall Mean (staging of group) / Histopathological grade, Lateral prostate: histological grade on 1-6 scale of hyperplasia/neoplasia/carcinoma; details: for Overall Mean (staging of group): TRAMP mice; for Average mouse Staging: mean of lobe grades
Protocol: as §1

hyperplastic cells = experiment: Activity against hyperplastic cells; details: compared with S(+) enantiomer
From the text: The pharmacokinetics of etodolac have been extensively reviewed by D. R. Brocks et al., Clin. Pharmacokinet., 26, 259 (1994). Etodolac is marketed as the racemate.

[5] = cited from earlier work; remark: listed apart in the source
[6] = after a 200 mg dose in six elderly patients
[7] = TRAMP mice, High Dose (1250 ppm in diet), 18 weeks, average ± standard deviation
[8] = TRAMP mice, Low Dose (312 ppm in diet), 18 weeks, average ± standard deviation
[9] = TRAMP mice treated with R-etodolac

CCc1cccc2c3c([nH]c12)C(CC)(CC(=O)O)OCC3 (racemic) [etodolac, 1,8-diethyl-1,3,4,9-tetrahydro[3,4-6]indole-1-acetic acid]
Elimination half-life ([1]; racemic mixture): 6 to 8 h

CCc1cccc2c3c([nH]c12)[C@](CC)(CC(=O)O)OCC3 (single isomer, unassigned) [S(+)-enantiomer of etodolac, reference compound]
Anti-inflammatory activity (reduction in paw volume) [2]: almost all of the anti-inflammatory activity of the racemate
Prostaglandin synthetase inhibitory activity (prostaglandin synthetase): almost all
Maximum concentration relative to R-enantiomer [1, 6]: 5 fold lower

CCc1cccc2c3c([nH]c12)[C@@](CC)(CC(=O)O)OCC3 [R-etodolac]
Anti-inflammatory activity (reduction in paw volume) [2]: No anti-inflammatory activity was discernible
Average weigh (g) Anterior Prostate [3, 7]: 0.076 ± 0.012 g
Average weigh (g) Dorsal Prostate [3, 7]: 0.053 ± 0.013 g
Average weigh (g) Lateral Prostate [3, 7]: 0.016 ± 0.003 g
Average weigh (g) Ventral prostate [3, 7]: 0.014 ± 0.001 g
Total Weigh average [3, 7]: 0.160 ± 0.022 g
Average weigh (g) Anterior Prostate [3, 8]: 0.062 ± 0.033 g
Average weigh (g) Dorsal Prostate [3, 8]: 0.062 ± 0.027 g
Average weigh (g) Lateral Prostate [3, 8]: 0.015 ± 0.001 g
Average weigh (g) Ventral prostate [3, 8]: 0.024 ± 0.017 g
Overall size of the prostates ([3]; TRAMP mice, highest dose): reduction of the overall size of the prostates
Overall size of the prostates ([3]; treated mice compared to untreated mice): reduces the overall size of the prostates
Effects in any other tissues [4, 9]: No other effects in any other tissues were observed
Progression of the disease (histological analysis) [4, 9]: maintaining the animals in a pre-cancerous stage
Overall Mean (staging of group) ([4]; High dose group (1250 ppm in diet), 18 weeks, statistically significant from control group, p < 0.005): 3.3*
Overall Mean (staging of group) ([4]; Low dose group (312 ppm in diet), 18 weeks): 4.3
Average mouse Staging ([4]; individual TRAMP mice, High dose (1250 ppm in diet), 18 weeks): 3.8 and 3.3 (3×) and 3.5 and 3.0
Histopathological grade, Lateral prostate ([4]; individual TRAMP mice, Low dose (312 ppm in diet), 18 weeks, grade 1-6): 3.5
Average mouse Staging ([4]; individual TRAMP mice, Low dose (312 ppm in diet), 18 weeks): 4.0 (2×) and 5.5 and 3.6 and 4.5 and 6.0
Maximum plasma concentration [1, 6]: about 33 μM
Plasma concentrations of R-enantiomer relative to S-enantiomer ([1]; in plasma after administration of RS-etodolac, Brocks et al. 1994): about 10 fold
Activity against hyperplastic cells (hyperplastic cells): potent activity against hyperplastic cells that is at least equivalent to that of the S(+) enantiomer
Conversion to the S(+) enantiomer in vivo [5]: not converted significantly
